The subject of data set [1] is Staphylococcus aureus. Nature of the data set: Antibacterial activity against methicillin-resistant Staphylococcus aureus USA300 assessed as bacterial growth inhibition. The format is functional.
Data set [2] concerns Staphylococcus aureus. Put plainly: Antibacterial activity against methicillin-resistant Staphylococcus aureus HS-663 assessed as bacterial growth inhibition. It is filed as functional.
The test system of data set [3] is Staphylococcus aureus. Put plainly: Antibacterial activity against vancomycin-intermediate Staphylococcus aureus Mu50 assessed as bacterial growth inhibition. It is filed as functional.
For data set [4], the system named is Staphylococcus aureus. Put plainly: Antibacterial activity against methicillin-susceptible Staphylococcus aureus Newman assessed as bacterial growth inhibition. It is filed as functional.
The subject of a further data set is Escherichia coli. Put plainly: Antibacterial activity against Escherichia coli AB1157 assessed as bacterial growth inhibition. The format is functional.
Another data set relates to Acinetobacter baumannii. Put plainly: Antibacterial activity against Acinetobacter baumannii assessed as bacterial growth inhibition. The format is functional.
In data set [5] the test system is Enterococcus faecium. Nature of the data set: Antibacterial activity against vancomycin resistant Enterococcus faecium Van A HS-0649 assessed as inhibition of bacterial growth. The format is functional.
Data set [6] relates to Enterococcus faecium. Put plainly: Antibacterial activity against vancomycin resistant Enterococcus faecium Van A HS-06188 assessed as inhibition of bacterial growth. It is filed as functional.
Data set [7] deals with Enterococcus faecium. Nature of the data set: Antibacterial activity against vancomycin resistant Enterococcus faecium Van M HS-0847 assessed as inhibition of bacterial growth. The format is functional.
Data set [8] has as its system Enterococcus faecium. Nature of the data set: Antibacterial activity against vancomycin resistant Enterococcus faecium Van M HS-08267 assessed as inhibition of bacterial growth. The format is functional.
Data set [9] concerns Enterococcus faecium. Nature of the data set: Antibacterial activity against vancomycin resistant Enterococcus faecium Van B V(R) assessed as inhibition of bacterial growth. The format is functional.
The test system of data set [10] is L02. Put plainly: Cytotoxicity against human L02 cells assessed as reduction in cell viability >= 12.5 uM. The format is cell-based.
Data set [11] concerns Enterococcus faecium. Put plainly: Potency index, ratio of Vancomycin MIC to test compound MIC for antibacterial activity against vancomycin resistant Enterococcus faecium Van A HS-06188 assessed as inhibition of bacterial growth. It is filed as functional.
The subject of data set [12] is Enterococcus faecium. Nature of the data set: Potency index, ratio of Vancomycin MIC to test compound MIC for antibacterial activity against vancomycin resistant Enterococcus faecium Van M HS-0847 assessed as inhibition of bacterial growth. The format is functional.
For data set [13], the system named is Enterococcus faecium. Put plainly: Potency index, ratio of Vancomycin MIC to test compound MIC for antibacterial activity against vancomycin resistant Enterococcus faecium Van M HS-08267 assessed as inhibition of bacterial growth. It is filed as functional.
For data set [14], the system named is Enterococcus faecium. Put plainly: Potency index, ratio of Vancomycin MIC to test compound MIC for antibacterial activity against vancomycin resistant Enterococcus faecium Van B V(R) assessed as inhibition of bacterial growth. The format is functional.
For another data set, the system named is HEK-293T. Put plainly: Cytotoxicity against human HEK293T cells assessed as reduction in cell viability upto 25 uM. The format is cell-based.
The test system of data set [15] is L02. Put plainly: Cytotoxicity against human L02 cells assessed as reduction in cell viability < 6.25 uM. The format is cell-based.
The test system of data set [16] is Staphylococcus aureus. Nature of the data set: Potency index, ratio of Vancomycin MIC to test compound MIC for antibacterial activity against methicillin-susceptible Staphylococcus aureus Newman assessed as bacterial growth inhibition. It is filed as functional.
The test system of data set [17] is Staphylococcus aureus. Put plainly: Potency index, ratio of Vancomycin MIC to test compound MIC for antibacterial activity against vancomycin-intermediate Staphylococcus aureus Mu50 assessed as bacterial growth inhibition. It is filed as functional.

Our source for the MIC, Activity and Ratio values is ChEMBL document CHEMBL4808179 (Bioorg Med Chem Lett, 2021).

≈ marks a conversion by molar mass, not a printed value.

The MIC is the lowest concentration found to suppress growth. With `CN[C@H](CC(C)C)C(=O)N[C@H]1C(=O)N[C@@H](CC(N)=O)C(=O)N[C@H]2C(=O)N[C@H]3C(=O)N[C@H](C(=O)N[C@H](C(=O)N[C@@H](CS)C(=O)O)c4cc(O)cc(O)c4-c4cc3ccc4O)[C@H](O)c3ccc(c(Cl)c3)Oc3cc2cc(c3O[C@@H]2O[C@H](CO)[C@@H](O)[C@H](O)[C@H]2O[C@H]2C[C@](C)(N)[C@H](O)[C@H](C)O2)Oc2ccc(cc2Cl)[C@H]1O`, the MIC is 32 µg/mL (≈ 20.6 µM) with Staphylococcus aureus [1]; 2 µg/mL (≈ 1.29 µM) in the data set on Staphylococcus aureus [2]; 128 µg/mL (≈ 82.5 µM) with Staphylococcus aureus [3]; 64 µg/mL (≈ 41.2 µM) in the data set on Staphylococcus aureus [4]; over 128 µg/mL in the data set with Escherichia coli; over 128 µg/mL in the data set on Acinetobacter baumannii. For the same compound, the minimum inhibitory concentration (MIC) was over 128 µg/mL in the data set with Enterococcus faecium [5]; 16 µg/mL (≈ 10.3 µM) in the data set on Enterococcus faecium [6]; 8 µg/mL (≈ 5.15 µM) with Enterococcus faecium [7]; 8 µg/mL (≈ 5.15 µM) in the data set on Enterococcus faecium [8]; 8 µg/mL (≈ 5.15 µM) with Enterococcus faecium [9]. Besides, in the data set on L02 [10], the Activity result is recorded as “Toxic”. For the same compound, the Ratio with Enterococcus faecium [11], in the data set on Enterococcus faecium [12], with Enterococcus faecium [13] and with Enterococcus faecium [14] was 8 each time.

With `CN[C@H](CC(C)C)C(=O)N[C@H]1C(=O)N[C@@H](CC(N)=O)C(=O)N[C@H]2C(=O)N[C@H]3C(=O)N[C@H](C(=O)N[C@H](C(=O)NNCc4ccc(-c5ccc(Cl)cc5)cc4)c4cc(O)cc(O)c4-c4cc3ccc4O)[C@H](O)c3ccc(c(Cl)c3)Oc3cc2cc(c3O[C@@H]2O[C@H](CO)[C@@H](O)[C@H](O)[C@H]2O[C@H]2C[C@](C)(N)[C@H](O)[C@H](C)O2)Oc2ccc(cc2Cl)[C@H]1O`, the MIC in the data set on Staphylococcus aureus [1] was 1 µg/mL (≈ 0.601 µM); in the data set on Staphylococcus aureus [2], 0.0625 µg/mL (≈ 0.0376 µM); with Staphylococcus aureus [3], 4 µg/mL (≈ 2.4 µM); with Staphylococcus aureus [4] it was at most 0.0625 µg/mL; with Escherichia coli, 128 µg/mL (≈ 76.9 µM); in the data set on Acinetobacter baumannii, 128 µg/mL (≈ 76.9 µM). Also, the MIC in the data set with Enterococcus faecium [5] was 16 µg/mL (≈ 9.62 µM); in the data set on Enterococcus faecium [6], 8 µg/mL (≈ 4.81 µM); in the data set on Enterococcus faecium [7], 8 µg/mL (≈ 4.81 µM); with Enterococcus faecium [8] it was 4 µg/mL (≈ 2.4 µM); in the data set with Enterococcus faecium [9], 4 µg/mL (≈ 2.4 µM). The Activity result in the data set with HEK-293T is “Non-Toxic”; in the data set with L02 [15] it was “Toxic”. The Ratio in the data set on Enterococcus faecium [11] was 8; in the data set on Enterococcus faecium [12], 8; with Enterococcus faecium [13] it was 8; in the data set with Enterococcus faecium [14], 8; in the data set on Staphylococcus aureus [16], 32; in the data set on Staphylococcus aureus [17], 2.

For the compound `CN[C@H](CC(C)C)C(=O)N[C@H]1C(=O)N[C@@H](CC(N)=O)C(=O)N[C@H]2C(=O)N[C@H]3C(=O)N[C@H](C(=O)N[C@H](C(=O)N/N=C/c4ccc(-c5ccccc5)cc4)c4cc(O)cc(O)c4-c4cc3ccc4O)[C@H](O)c3ccc(c(Cl)c3)Oc3cc2cc(c3O[C@@H]2O[C@H](CO)[C@@H](O)[C@H](O)[C@H]2O[C@H]2C[C@](C)(N)[C@H](O)[C@H](C)O2)Oc2ccc(cc2Cl)[C@H]1O`, the MIC in the data set with Staphylococcus aureus [1] is 0.25 µg/mL (≈ 0.154 µM); in the data set with Staphylococcus aureus [2], 0.0625 µg/mL (≈ 0.0384 µM); with Staphylococcus aureus [3], 2 µg/mL (≈ 1.23 µM); in the data set on Staphylococcus aureus [4], at most 0.0625 µg/mL; in the data set on Escherichia coli, 128 µg/mL (≈ 78.6 µM); with Acinetobacter baumannii, over 128 µg/mL. For the same compound, the MIC in the data set with Enterococcus faecium [5] was found to be 4 µg/mL (≈ 2.46 µM); in the data set on Enterococcus faecium [6], 4 µg/mL (≈ 2.46 µM); in the data set on Enterococcus faecium [7] it was 4 µg/mL (≈ 2.46 µM); in the data set with Enterococcus faecium [8], 2 µg/mL (≈ 1.23 µM); with Enterococcus faecium [9], 2 µg/mL (≈ 1.23 µM). In addition, the Ratio with Enterococcus faecium [11] is 8; in the data set on Enterococcus faecium [12], 8; in the data set on Enterococcus faecium [13] it was 8; with Enterococcus faecium [14], 8; with Staphylococcus aureus [16], 32; with Staphylococcus aureus [17] it was 2.

For the compound `CN[C@H](CC(C)C)C(=O)N[C@H]1C(=O)N[C@@H](CC(N)=O)C(=O)N[C@H]2C(=O)N[C@H]3C(=O)N[C@H](C(=O)N[C@H](C(=O)NNCc4ccc(-c5ccccc5)cc4)c4cc(O)cc(O)c4-c4cc3ccc4O)[C@H](O)c3ccc(c(Cl)c3)Oc3cc2cc(c3O[C@@H]2O[C@H](CO)[C@@H](O)[C@H](O)[C@H]2O[C@H]2C[C@](C)(N)[C@H](O)[C@H](C)O2)Oc2ccc(cc2Cl)[C@H]1O`, the MIC in the data set on Staphylococcus aureus [1] was 0.5 µg/mL (≈ 0.307 µM); in the data set on Staphylococcus aureus [2], under 0.0625 µg/mL; in the data set with Staphylococcus aureus [3] it was 1 µg/mL (≈ 0.614 µM); in the data set with Staphylococcus aureus [4] it was at most 0.0625 µg/mL; in the data set on Escherichia coli it was 64 µg/mL (≈ 39.3 µM); in the data set on Acinetobacter baumannii, 64 µg/mL (≈ 39.3 µM). Also, the MIC with Enterococcus faecium [5] amounted to 8 µg/mL (≈ 4.91 µM); in the data set on Enterococcus faecium [6] it was 8 µg/mL (≈ 4.91 µM); in the data set on Enterococcus faecium [7], 8 µg/mL (≈ 4.91 µM); with Enterococcus faecium [8], 4 µg/mL (≈ 2.45 µM); with Enterococcus faecium [9], 4 µg/mL (≈ 2.45 µM). The Ratio in the data set with Enterococcus faecium [11] is listed as 8; in the data set on Enterococcus faecium [12], 8; with Enterococcus faecium [13], 8; with Enterococcus faecium [14], 8; with Staphylococcus aureus [16] it was 32; in the data set on Staphylococcus aureus [17], 2.

For the compound `CN[C@H](CC(C)C)C(=O)N[C@H]1C(=O)N[C@@H](CC(N)=O)C(=O)N[C@H]2C(=O)N[C@H]3C(=O)N[C@H](C(=O)N[C@H](C(=O)N/N=C/c4ccc(-c5ccc(Cl)cc5)cc4)c4cc(O)cc(O)c4-c4cc3ccc4O)[C@H](O)c3ccc(c(Cl)c3)Oc3cc2cc(c3O[C@@H]2O[C@H](CO)[C@@H](O)[C@H](O)[C@H]2O[C@H]2C[C@](C)(N)[C@H](O)[C@H](C)O2)Oc2ccc(cc2Cl)[C@H]1O`, the MIC in the data set on Staphylococcus aureus [1] is 0.5 µg/mL (≈ 0.301 µM); in the data set with Staphylococcus aureus [2] it was 0.0625 µg/mL (≈ 0.0376 µM); with Staphylococcus aureus [3], 2 µg/mL (≈ 1.2 µM); with Staphylococcus aureus [4], 0.5 µg/mL (≈ 0.301 µM); in the data set with Escherichia coli, 128 µg/mL (≈ 77 µM); in the data set on Acinetobacter baumannii, over 128 µg/mL. Further, the minimum inhibitory concentration (MIC) turned out to be 4 µg/mL (≈ 2.41 µM) in the data set on Enterococcus faecium [5]; 16 µg/mL (≈ 9.63 µM) with Enterococcus faecium [6]; 4 µg/mL (≈ 2.41 µM) in the data set with Enterococcus faecium [7]; 4 µg/mL (≈ 2.41 µM) in the data set on Enterococcus faecium [8]; 8 µg/mL (≈ 4.81 µM) in the data set on Enterococcus faecium [9]. Besides, the Ratio in the data set with Enterococcus faecium [11] worked out at 8; in the data set with Enterococcus faecium [12], 8; with Enterococcus faecium [13] it was 8; in the data set on Enterococcus faecium [14], 8; with Staphylococcus aureus [16], 4; in the data set with Staphylococcus aureus [17], 2.
